Experimental data from patent publication US20230148626A1, “PROTEIN-BASED FORMING AGENT, PREPARATION METHOD AND APPLICATION THEREOF” (NORTHEAST AGRICULTURAL UNIVERSITY, priority 2021, published 2023).

How the values were obtained:
[1] = pH of the original solution of GA; type: physicochemical
[2] = target: T1, α-La (Bos taurus, UniProt P00711); experiment: Binding isotherm: number of GA molecules bound per α-La molecule (endogenous fluorescence); conditions: α-La 20 µmol/L, 25 °C
T1 construct: purchased Davisco Foods International
T1 sequence (P00711 20-142): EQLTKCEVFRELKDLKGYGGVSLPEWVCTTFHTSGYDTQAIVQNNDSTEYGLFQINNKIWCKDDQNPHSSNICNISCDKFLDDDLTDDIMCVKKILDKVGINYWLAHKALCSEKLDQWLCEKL
Protocol: Determination of the number of molecules of glycyrrhizic acid binding α-La: under 25 degree Celsius (°C) and fixed concentration of α-La of 20 µmol/L, adjusting the concentration of GA (0 - 15.0 mM) to obtain a α-La-GA mixed solution; calculating an average value (v) of each protein molecule bound to surfactant molecules by measuring the endogenous fluorescence (λex = 295 nm) of α-La-GA mixed solution, and obtaining a binding isotherm from the change of the average number with the total concentration of GA as shown in FIG. 2.
Binding isotherm allows a good understanding of protein-glycyrrhizic acid binding behavior, with the average value (v) of glycyrrhizic acid molecules bound per protein molecule as the response value being used as a criterion for determination. […] In the region II of 0.02<CGA<1.00 mM, the average value v of bound GA molecules increases slowly but obviously, where the maximum fluorescence intensity is decreased. In the region III between 1.00 mM and 15.00 mM, a large number of synergistic binding appears with the formation of protein aggregates. Moreover, the values v under different pH conditions vary greatly in regions II and III (see Table 1). Acidic conditions can induce more GA molecules to bind with α-La in the process of non-cooperative binding and cooperative binding, which may be due to the fact that the structure of α-La is unfolded under acidic conditions, prompting more hydrophobic groups to be exposed, thus making α-La binding with more GA molecules.

[3] = target: T1, α-La; experiment: Aggregation of GA in the presence of α-La (ANS fluorescence, CAC breakpoint); type: physicochemical; conditions: in the presence of α-La and ANS
Protocol: Measurement of aggregation: adding 8-Anilino-1-naphthalenesulfonic acid (ANS) solution (80 microliter (µL), 8 mmol/L) into 4 milliliter (mL) of the mixed solutions prepared in Embodiment 1 and Embodiment 2, respectively, and standing the solutions in the dark for 15 min; measuring the aggregation with a 1 centimeter (cm) light path cuvette, setting the excitation/emission slit of the instrument to 5.0/2.5 nano-meter (nm), the excitation wavelength at 355 nm, and recording the emission spectrum as 360 - 600 nm; recording the value of the most fluorescent intensity.
The threshold concentration required to form small molecular aggregates on the surface of protein is called critical aggregation concentration (CAC), which is usually lower than critical micelle concentration (CMC). […] For example, the minimum value of fluorescence of α-La is recorded under neutral condition and 1.0 mM GA, while the minimum value is observed after adding 2.0 mM GA in acid solution; this is because the pH of the original solution of GA is 4.3, while the carboxylate of GA is protonated and its electrostatic charge is shielded when the pH is 2.5, which leads to the decrease of repulsion between GA molecules and promotes self-assembly of molecules to form aggregates; GA is easier to polymerize under acidic conditions when the concentration of α-La is constant, that is, it has a smaller CAC.

pH of the original solution of GA [1]: 4.3
average value v of GA molecules bound per protein molecule ([2]; pH 2.5, characteristic area I, CGA 0 - 0.20): 0 - 8.96
average value v of GA molecules bound per protein molecule ([2]; pH 2.5, characteristic area II, CGA 0.20 - 1.00): 8.96 - 48.95
average value v of GA molecules bound per protein molecule ([2]; pH 7.0, characteristic area I, CGA 0 - 0.20): 0 - 5.22
average value v of GA molecules bound per protein molecule ([2]; pH 7.0, characteristic area II, CGA 0.20-1.00): 5.22 - 39.49
average value v of GA molecules bound per protein molecule ([2]; pH 7.0, characteristic area III, CGA 1.00-15.00): 39.49 - 998.19
GA concentration at minimum value of fluorescence of α-La (breakpoint, CAC) ([3]; acid solution): 2.0 mM
GA concentration at minimum value of fluorescence of α-La (breakpoint, CAC) ([3]; neutral condition): 1.0 mM
SMILES: CC1(C)[C@@H](O[C@H]2O[C@H](C(=O)O)[C@@H](O)[C@H](O)[C@H]2O[C@@H]2O[C@H](C(=O)O)[C@@H](O)[C@H](O)[C@H]2O)CC[C@]2(C)[C@H]3C(=O)C=C4[C@@H]5C[C@@](C)(C(=O)O)CC[C@]5(C)CC[C@@]4(C)[C@]3(C)CC[C@@H]12 [GA, glycyrrhizic acid]
